Measurements taken from publication PMC7730235, “Discovery of a Novel Class of Covalent Dual Inhibitors Targeting the Protein Kinases BMX and BTK” (International Journal of Molecular Sciences, 2020).

Key:
TXK = target: T1, TXK (Homo sapiens, UniProt P42681); assay: Radiometric kinase assay (Reaction Biology HotSpot); type: biochemical; settings: radiometric HotSpot, five-dose singlicate, [ATP] = 10 μM
T1 construct: purchased Reaction Biology Corporation
T1 sequence (P42681 1-527): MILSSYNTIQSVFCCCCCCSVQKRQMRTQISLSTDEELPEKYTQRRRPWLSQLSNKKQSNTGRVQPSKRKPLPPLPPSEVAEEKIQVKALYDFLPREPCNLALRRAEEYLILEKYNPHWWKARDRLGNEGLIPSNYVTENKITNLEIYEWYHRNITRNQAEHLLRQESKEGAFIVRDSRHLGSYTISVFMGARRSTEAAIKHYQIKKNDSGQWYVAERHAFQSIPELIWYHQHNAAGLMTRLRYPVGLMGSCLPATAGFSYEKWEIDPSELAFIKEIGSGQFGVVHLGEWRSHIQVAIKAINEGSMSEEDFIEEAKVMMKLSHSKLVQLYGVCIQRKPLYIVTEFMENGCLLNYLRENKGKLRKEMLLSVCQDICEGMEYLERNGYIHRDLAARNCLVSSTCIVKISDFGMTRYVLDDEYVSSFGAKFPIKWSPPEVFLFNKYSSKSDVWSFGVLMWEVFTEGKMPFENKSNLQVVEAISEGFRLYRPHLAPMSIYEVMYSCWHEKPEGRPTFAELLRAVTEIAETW
Experimental: (§1) If not mentioned differently, in vitro profiling of compounds was performed at Reaction Biology Corporation using the HotSpot™ assay platform.

BMX = target: T2, BMX (Homo sapiens, UniProt P51813); assay: as above; type: biochemical; settings: radiometric HotSpot, five-dose singlicate, [ATP] = 10 μM
T2 construct: purchased Reaction Biology Corporation
T2 sequence (P51813 1-675): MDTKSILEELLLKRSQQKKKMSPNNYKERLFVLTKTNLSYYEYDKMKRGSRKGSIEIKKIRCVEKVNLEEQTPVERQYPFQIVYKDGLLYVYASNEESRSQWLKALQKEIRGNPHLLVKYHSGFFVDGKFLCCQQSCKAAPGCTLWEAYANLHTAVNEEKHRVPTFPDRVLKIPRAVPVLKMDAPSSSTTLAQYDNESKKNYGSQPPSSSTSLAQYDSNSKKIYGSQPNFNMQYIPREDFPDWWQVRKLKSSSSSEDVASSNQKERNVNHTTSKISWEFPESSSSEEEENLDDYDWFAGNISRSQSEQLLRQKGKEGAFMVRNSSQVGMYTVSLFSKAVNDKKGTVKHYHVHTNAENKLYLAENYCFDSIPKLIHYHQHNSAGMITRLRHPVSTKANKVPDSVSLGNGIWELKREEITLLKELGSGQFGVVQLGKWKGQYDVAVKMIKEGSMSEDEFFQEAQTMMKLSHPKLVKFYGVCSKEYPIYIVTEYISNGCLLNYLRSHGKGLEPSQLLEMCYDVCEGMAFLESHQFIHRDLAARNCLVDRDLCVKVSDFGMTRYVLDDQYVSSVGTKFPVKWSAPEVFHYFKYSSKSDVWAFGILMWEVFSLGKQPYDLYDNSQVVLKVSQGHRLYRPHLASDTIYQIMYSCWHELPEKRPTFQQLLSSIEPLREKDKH
Experimental: as §1

kinase domain of BMX [1] = target: T3, kinase domain of BMX (Homo sapiens, UniProt P51813); assay: Mass spectrometric investigation of covalent binding to BMX (ESI-TOF); settings: 4 °C; for covalent labeling of BMX (in words): 1.5-fold molar excess, complete labeling refers to 30 min
T3 construct: The kinase domains of JAK3 and BMX at 2 μM
Experimental: The kinase domain of BMX was diluted to 0.05 mM with buffer containing 20 mM Tris pH 8.0, 200 mM NaCl, 0.5 mM TCEP (pH 7.0) and was subsequently mixed with 0.075 mM inhibitors (ratio of protein to inhibitor of 1:1.5). The mixture was incubated at 4°C. The samples were taken at different time points, the reaction stopped by diluting the sample with a 200-fold excess of 1% formic acid. The denatured protein and the adducts were assessed using electrospray time-of-flight (ESI-TOF) mass spectrometry.

[2] = target: T4, Full length BMX (C-terminal NanoLuc fusion) (Homo sapiens, UniProt P51813); assay: Cellular NanoBRET target engagement assay in HEK293T cells; type: cell-based; settings: 0.5 µM Tracer K4, 2 h incubation
T4 construct: Full length BMX and BTK was cloned into pFC32K; expressed in transfected cells; host or cells: HEK293T
T4 sequence (P51813 1-675): T2 sequence (P51813 1-675)
Experimental: (§2) Full length BMX and BTK was cloned into pFC32K (Promega, Madison, WI, USA) for expression of a C-terminal NanoLuc fusion. The plasmids were transfected into HEK293T cells cultured in DMEM (Gibco, Waltham, MA, USA) supplemented with 10% fetal bovine serum (Gibco, Waltham, MA, USA) and Penicillin/Streptamycin (Gibco, Waltham, MA, USA). NanoBRET assays were performed using the protocol published previously. Briefly, after transfection and 20 h incubation cells were harvested and subsequently resuspended in OptiMEM (Gibco, Waltham, MA, USA). Cells were aliquoted onto […] (Greiner, Kremsmünster, Austria), and inhibitors as well as 0.5 µM Tracer K4 (Promega) for BMX or 0.5 µM Tracer K5 (Promega, Madison, WI, USA) for BTK were added using an ECHO acoustic dispenser. The plates were incubated at 37 °C with 5% CO2 for 2 h prior to the addition of both NanoBRET NanoGlo substrate (Promega, Madison, WI, USA) and extracellular NanoLuc inhibitor. BRET luminescence (450 nm for donor emission and 610 nm for BRET signal) was measured using PHERAstar FSX plate reader (BMG Labtech, Ortenberg, Germany). Milli-BRET units (mBU) were calculated as a ratio between BRET signal and the overall measured luminescence. A dose–response fitting was applied and IC50 values were calculated using the Prism software. […] Experiments were performed as tripicates and repeated at least three times.

[3] = target: T5, Full length BTK (C-terminal NanoLuc fusion) (Homo sapiens, UniProt Q06187); assay: as above; type: cell-based; settings: 0.5 µM Tracer K5, 2 h incubation
T5 construct: Full length BMX and BTK was cloned into pFC32K; expressed in transfected cells; host or cells: HEK293T
T5 sequence (Q06187 whole entry, the tested form may be a part): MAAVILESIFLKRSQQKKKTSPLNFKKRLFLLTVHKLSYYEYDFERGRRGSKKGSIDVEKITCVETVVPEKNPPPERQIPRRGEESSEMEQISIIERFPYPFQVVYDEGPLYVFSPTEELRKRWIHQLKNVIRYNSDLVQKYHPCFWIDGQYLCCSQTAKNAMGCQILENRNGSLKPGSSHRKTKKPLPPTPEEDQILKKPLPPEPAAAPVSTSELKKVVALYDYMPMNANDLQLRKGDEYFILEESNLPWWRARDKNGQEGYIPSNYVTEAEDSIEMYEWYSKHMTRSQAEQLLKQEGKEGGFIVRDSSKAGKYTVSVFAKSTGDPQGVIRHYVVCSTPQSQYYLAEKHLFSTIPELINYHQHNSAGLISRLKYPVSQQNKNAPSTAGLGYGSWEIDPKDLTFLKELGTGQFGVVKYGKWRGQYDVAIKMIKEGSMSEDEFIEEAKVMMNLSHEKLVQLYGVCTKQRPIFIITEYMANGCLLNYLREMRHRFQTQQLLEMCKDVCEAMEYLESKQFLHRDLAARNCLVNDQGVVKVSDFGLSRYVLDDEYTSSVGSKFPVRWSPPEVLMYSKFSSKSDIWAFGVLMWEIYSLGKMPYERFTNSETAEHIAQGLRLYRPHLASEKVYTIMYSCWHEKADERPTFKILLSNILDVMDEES
Experimental: as §2

JAK3 = target: T6, JAK3 (Homo sapiens, UniProt P52333); assay: Radiometric kinase assay (Reaction Biology HotSpot); type: biochemical; settings: radiometric HotSpot, five-dose singlicate, [ATP] = 10 μM
T6 construct: purchased Reaction Biology Corporation
T6 sequence (P52333 1-1124): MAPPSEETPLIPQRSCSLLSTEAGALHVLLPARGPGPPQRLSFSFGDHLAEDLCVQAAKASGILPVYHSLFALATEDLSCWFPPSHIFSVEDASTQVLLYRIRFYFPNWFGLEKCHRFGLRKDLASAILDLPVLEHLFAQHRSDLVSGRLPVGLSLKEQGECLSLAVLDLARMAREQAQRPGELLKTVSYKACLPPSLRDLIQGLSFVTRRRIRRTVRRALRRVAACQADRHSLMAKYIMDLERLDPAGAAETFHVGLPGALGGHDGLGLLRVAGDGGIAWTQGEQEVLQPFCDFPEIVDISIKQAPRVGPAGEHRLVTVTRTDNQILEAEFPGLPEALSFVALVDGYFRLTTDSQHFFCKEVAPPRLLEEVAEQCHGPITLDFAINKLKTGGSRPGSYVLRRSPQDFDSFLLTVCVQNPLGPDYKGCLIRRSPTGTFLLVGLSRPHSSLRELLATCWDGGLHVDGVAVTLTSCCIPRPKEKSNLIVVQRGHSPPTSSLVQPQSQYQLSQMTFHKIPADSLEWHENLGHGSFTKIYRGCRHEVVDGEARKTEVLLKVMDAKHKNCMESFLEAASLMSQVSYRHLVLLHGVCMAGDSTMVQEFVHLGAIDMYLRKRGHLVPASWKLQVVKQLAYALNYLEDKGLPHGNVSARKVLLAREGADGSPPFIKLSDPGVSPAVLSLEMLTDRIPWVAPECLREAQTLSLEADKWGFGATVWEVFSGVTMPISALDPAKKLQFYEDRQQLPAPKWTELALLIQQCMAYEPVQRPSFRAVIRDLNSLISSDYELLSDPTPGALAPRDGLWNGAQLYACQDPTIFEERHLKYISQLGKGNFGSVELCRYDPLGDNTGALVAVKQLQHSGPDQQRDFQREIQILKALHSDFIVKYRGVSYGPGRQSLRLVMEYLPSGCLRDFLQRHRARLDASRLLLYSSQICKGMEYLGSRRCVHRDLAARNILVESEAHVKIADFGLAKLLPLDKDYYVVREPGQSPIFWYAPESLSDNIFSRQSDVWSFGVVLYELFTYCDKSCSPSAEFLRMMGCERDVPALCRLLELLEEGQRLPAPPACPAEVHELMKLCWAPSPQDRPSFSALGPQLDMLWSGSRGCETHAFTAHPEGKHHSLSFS
Experimental: as §1

kinase domain of JAK3 = target: T7, kinase domain of JAK3 (Homo sapiens, UniProt P52333); assay: Thermal shift (ΔTm) assay; type: binding; settings: 2 μM kinase domain, 10 μM inhibitor; mean ± SD of at least three measurements
T7 construct: The kinase domains of JAK3 and BMX at 2 μM; made in house
Experimental: (§3) The kinase domains of JAK3 and BMX at 2 μM were mixed with the inhibitors at 10 μM, and subsequently SyPRO orange dye (Invitrogen Carlsbad, CA, USA) was added. The thermal shift assay and data evaluation were performed as described previously using a Real-Time PCR Mx3005p machine (Stratagene, La Jolla, CA, USA).

kinase domain of BMX [4] = target: T3, kinase domain of BMX; assay: Thermal shift (ΔTm) assay; type: binding; settings: 2 μM kinase domain, 10 μM inhibitor; mean ± SD of at least three measurements
Experimental: as §3

[5] = 1.5-fold molar excess of inhibitor, 30 min
[6] = 1.5-fold molar excess of inhibitor, 60 min
[7] = 1.5-fold molar excess of inhibitor, 120 min
[8] = 1.5-fold molar excess of inhibitor, 240 min

IC50 (TXK) | IC50 (BMX) | native (unmodified) BMX fraction, 30 min (kinase domain of BMX [1]; [5]) | native (unmodified) BMX fraction, 60 min (kinase domain of BMX [1]; [6]) | native (unmodified) BMX fraction, 120 min (kinase domain of BMX [1]; [7]) | native (unmodified) BMX fraction, 240 min (kinase domain of BMX [1]; [8]) | covalent labeling of BMX (in words) (kinase domain of BMX [1]) | IC50 [2] | IC50 [3] | IC50 (JAK3) | BMX covalent adduct fraction, 30 min (kinase domain of BMX [1]; [5]) | BMX covalent adduct fraction, 60 min (kinase domain of BMX [1]; [6]) | BMX covalent adduct fraction, 120 min (kinase domain of BMX [1]; [7]) | BMX covalent adduct fraction, 240 min (kinase domain of BMX [1]; [8]) | ΔTm at 10 µM (kinase domain of JAK3) | ΔTm at 10 µM (kinase domain of BMX [4]) | SMILES
> 10 µM | > 10 µM | 100% | 100% | 100% | 100% | no modification was detectable | > 10 µM | 3.71 ± 1.2 µM |  |  |  |  |  |  |  | CCC(=O)Nc1cccc(-c2c[nH]c3ncc(C(=O)NC4CCCC4)cc23)c1 [Compound 11b, N-cyclopentyl-3-(3-propionamidophenyl)-1H-pyrrolo[2,3-b]pyridine-5-carboxamide]
 | 0.006 µM |  |  | 1% |  | complete labeling | 0.003 ± 0.001 µM | 0.013 ± 0.002 µM | > 10 µM | 100% | 100% | 99% | 100% | 11.9 ± 0.23 °C | 11.88 ± 0.07 °C | C=CC(=O)Nc1cccc(-c2c[nH]c3ncc(NC(=O)CC4CCCC4)cc23)c1 [Compound 12g, N-(3-(5-(2-cyclopentylacetamido)-1H-pyrrolo[2,3-b]pyridin-3-yl)phenyl)acrylamide]
